Assay results: patent US11414424B2, “Cardiac sarcomere inhibitors” (Cytokinetics, Inc., priority 2018, dated 2022)

Legend:
[1] = system: bovine cardiac myofibrils; assay: Myofibril assay: PK/LDH-coupled steady-state ATPase activity of skinned bovine cardiac myofibrils; format: biochemical; details: Ca2+ activating to 75% of maximal rate
Outline: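 Steady-state ATPase of detergent-skinned bovine left-ventricular myofibrils (1 mg/mL), PK/LDH-coupled NADH read at 340 nm, in PIPES/MgCl2 buffer pH 6.8 with 50 μM ATP, 0.6 mM EGTA and CaCl2 set for 50% or 75% activation. Inhibition of activity measured.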

male Sprague Dawley rats = assay: Echocardiography assessment of acute pharmacodynamic effect on rat cardiac contractility, oral dosing; format: in vivo
Experimental: Assessment of in vivo cardiac function by echocardiography was performed in male Sprague Dawley rats under isoflurane (1-3%) anesthesia. 2-D M-mode images of the left ventricle were acquired in the parasternal long-axis view before, during, and after administration of compounds by continuous IV infusion or oral gavage. In vivo fractional shortening was determined by M-mode image analysis with the following calculation: ((End diastolic diameter−end systolic diameter)/end diastolic diameter×100). For continuous IV infusion experiments, three pre-dose baseline M-mode images were taken at 1 minute intervals prior to infusion of compound. Compounds were formulated in 50% Propylene Glycol (PG): 16% Captisol: 10% dimethylacetamide (DMA) and delivered via a jugular vein catheter at the rate of 1 mL/kg/h. During infusion, M-mode images were taken at 5 minute intervals. The infusion was stopped when fractional shortening reached up to a 60% reduction from baseline. Blood samples were taken to determine the plasma concentration of the compounds. Data were reported as an estimated IC50 value, which is the concentration at which fractional shortening is 50% of the pre-dose baseline contractility.
For oral dosing studies, three pre-dose baseline M-Mode images were taken at 1 minute intervals prior to compound administration. Compounds were formulated in a 0.5% hydroxypropyl methylcellulose 2910 (HPMC 2910): 0.1% Tween 80 suspension and delivered as a single dose (5 mL/kg) by oral gavage. At one and four hours post-dose, rats were lightly anesthetized for M-mode echocardiography measurement. The compound effect on cardiac fractional shortening are presented as a percent reduction of baseline fractional shortening (=100%) in Table D.
Concurrent with echocardiography measurements, blood samples are taken to determine the corresponding compound plasma concentration, which may be represented as IC50 and IC10 values, which is the concentration at which fractional shortening is 50% and 10% of the pre-dose baseline contractility, respectively.

| SMILES | CDMF75 IC15 [1] [µM] | also measured |
| --- | --- | --- |
| CC(=O)N1CC2(C1)C(=O)N(c1ccc(C#N)cc1F)CC(=O)N2[C@@H](C)c1ccc(C(F)(F)F)cc1 [Compound 339, (S)-4-(2-acetyl-6,9-dioxo-5-(1-(4-(trifluoromethyl)phenyl)ethyl)-2,5,8-triazaspiro[3.5]nonan-8-yl)-3-fluorobenzonitrile] | 0.5 | FS (% reduction from baseline) at 1 h (Mean ± SEM) (male Sprague Dawley rats; 2.5 mg/kg oral): 21.8 ± 2.8%; FS (% reduction from baseline) at 4 h (Mean ± SEM) (male Sprague Dawley rats; 2.5 mg/kg oral): 5.8 ± 4.4%; FS (% reduction from baseline) at 1 h (Mean ± SEM) (male Sprague Dawley rats; 5 mg/kg oral): 66.2 ± 2.9%; FS (% reduction from baseline) at 4 h (Mean ± SEM) (male Sprague Dawley rats; 5 mg/kg oral): 19.9 ± 2.0% |
| N#Cc1ccc(N2CC(=O)N(Cc3ccc(C(F)(F)F)cc3)C3(CC3)C2=O)c(F)c1 [Compound 278, 4-(5,8-dioxo-4-(4-(trifluoromethyl)benzyl)-4,7-diazaspiro[2.5]octan-7-yl)-3-fluorobenzonitrile] | 0.5 | FS (% reduction from baseline) at 1 h (Mean ± SEM) (male Sprague Dawley rats; 3 mg/kg oral): 15.8 ± 2.0%; FS (% reduction from baseline) at 4 h (Mean ± SEM) (male Sprague Dawley rats; 3 mg/kg oral): 10.6 ± 5.6%; FS (% reduction from baseline) at 1 h (Mean ± SEM) (male Sprague Dawley rats; 6 mg/kg oral): 34.4 ± 3.3%; FS (% reduction from baseline) at 4 h (Mean ± SEM) (male Sprague Dawley rats; 6 mg/kg oral): 12.2 ± 4.2% |
| CC(=O)NC[C@@H]1C(=O)N(c2ncc(Cl)cc2F)CC(=O)N1Cc1ccc(C(F)(F)F)cc1 [Compound 626, (R)-N-((4-(5-chloro-3-fluoropyridin-2-yl)-3,6-dioxo-1-(4-(trifluoro-methyl)benzyl)piperazin-2-yl)methyl)acetamide] | >39 |  |
| Cc1ccc(CN2C(=O)CN(c3ncc(Cl)cc3F)C(=O)[C@@H]2C23CC(C(N)=O)(C2)C3)cc1 [Compound 823, (S)-3-(4-(5-chloro-3-fluoropyridin-2-yl)-1-(4-methylbenzyl)-3,6-dioxopiperazin-2-yl)bicyclo[1.1.1]pentane-1-carboxamide] | 2.3 |  |
| CNC(=O)N1CC2(C1)C(=O)N(c1ccc(C(F)F)cc1)CC(=O)N2Cc1ccc(C(F)(F)F)cc1 [Compound 157, 8-(4-(difluoromethyl)-phenyl)-N-methyl-6,9-dioxo-5(4-(trifluoromethyl)-benzyl)-2,5,8-triazaspiro-[3.5]nonane-2-carboxamide] | 5.5 |  |
| CC(=O)NCC1C(=O)N(c2ncc(Cl)cc2F)CC(=O)N1Cc1ccc(Cl)cc1 (stereo not drawn) [Compound 632, N-((4-(5-chloro-3-fluoro-pyridin-2-yl)-1-(4-chloro-benzyl)-3,6-dioxopiperazin-2-yl)methyl)acetamide] | 31.7 |  |
| O=C1CN(c2ccc(Cl)cc2F)C(=O)CN1Cc1ccc(C(F)(F)F)cc1 [Compound 277, 1-(4-chloro-2-fluorophenyl)-4-(4-(trifluoromethyl)-benzyl)piperazine-2,5-dione] | 32.7 |  |
| COc1cnc(N2CC(=O)N(Cc3ccc(C(F)(F)F)cc3)C(C3COC3)C2=O)c(F)c1 (single isomer, unassigned) [Compound 703B, 1-(3-fluoro-5-methoxypyridin-2-yl)-3-(oxetan-3-yl)-4-(4-(trifluoromethyl)benzyl)piperazine-2,5-dione] | 37.2 |  |
| CN(C)C(=O)N1CC2(C1)C(=O)N(c1ccc(C#N)c(F)c1)CC(=O)N2Cc1ccc(C(F)(F)F)cc1 [Compound 201, 8-(4-cyano-3-fluorophenyl)-N,N-dimethyl-6,9-dioxo-5-(4-(trifluoromethyl)benzyl)-2,5,8-triazaspiro[3.5]nonane-2-carboxamide] | 5.1 |  |
| CC(=O)NC[C@H]1C(=O)N(c2ncc(Cl)cc2F)CC(=O)N1Cc1ccc(C(F)(F)F)cc1 [Compound 625, (S)-N-((4-(5-chloro-3-fluoropyridin-2-yl)-3,6-dioxo-1-(4-(trifluoro-methyl)benzyl)piperazin-2-yl)methyl)acetamide] | 14.5 |  |
| C[C@H]1C(=O)N(c2ccc(Cl)cc2F)CC(=O)N1Cc1ccc(C(F)(F)F)cc1 [Compound 276, (S)-1-(4-chloro-2-fluoro-phenyl)-3-methyl-4-(4-(trifluoromethyl)benzyl)-piperazine-2,5-dione] | 3.0 |  |
| N#Cc1ccc(N2CC(=O)N(Cc3ccc(C(F)(F)F)cc3)[C@]3(C[C@H](C(=O)N4CCOCC4)C3)C2=O)c(F)c1 [Compound 444B] | 0.2 |  |

Second part, led by results:

| CDMF75 IC15 [1] [µM] | SMILES | also measured |
| --- | --- | --- |
| 0.3 | N#Cc1ccc(N2CC(=O)N(Cc3ccc(C(F)(F)F)cc3)C3(CN(C=O)C3)C2=O)c(F)c1 [Compound 179, 3-fluoro-4-(2-formyl-6,9-dioxo-5-(4-(trifluoro-methyl)benzyl)-2,5,8-triazaspiro[3.5]nonan-8-yl)benzonitrile] | FS (% reduction from baseline) at 1 h (Mean ± SEM) (male Sprague Dawley rats; 3 mg/kg oral): 33.8 ± 2.6%; FS (% reduction from baseline) at 4 h (Mean ± SEM) (male Sprague Dawley rats; 3 mg/kg oral): 4.5 ± 4.2%; FS (% reduction from baseline) at 1 h (Mean ± SEM) (male Sprague Dawley rats; 6 mg/kg oral): 51.9 ± 4.0%; FS (% reduction from baseline) at 4 h (Mean ± SEM) (male Sprague Dawley rats; 6 mg/kg oral): 15.0 ± 5.4% |
| 1.0 | O=C1CN(c2ccc(Cl)cc2F)C(=O)C2(COC2)N1Cc1ccc(C(F)(F)F)cc1 [Compound 274, 8-(4-chloro-2-fluorophenyl)-5-(4-(trifluoromethyl)-benzyl)-2-oxa-5,8-diazaspiro[3.5]nonane-6,9-dione] |  |
| 2.2 | CC(C)N1CC(=O)N(Cc2ccc(Cl)cc2)C2(CN(c3cccnn3)C2)C1=O [Compound 23, 5-(4-chlorobenzyl)-8-isopropyl-2-(pyridazin-3-yl)-2,5,8-triazaspiro[3.5]-nonane-6,9-dione] |  |
| 0.8 | CC(C)N1CC(=O)N(Cc2ccc(Cl)cc2)C2(CCN(c3ccccn3)C2)C1=O (stereo not drawn) [Compound 128, 6-(4-chlorobenzyl)-9-isopropyl-2-(pyridin-2-yl)-2,6,9-triazaspiro[4.5]decane-7,10-dione] |  |
| 28.9 | CC(C)N1CC(=O)N(Cc2ccc(C(F)(F)F)cn2)C(c2ccc(Cl)cc2)C1=O (stereo not drawn) [Compound 315, 3-(4-chlorophenyl)-1-isopropyl-4-((5-(trifluoromethyl)pyridin-2-yl)methyl)piperazine-2,5-dione] |  |
| 22.7 | CC(C)N1CC(=O)N(Cc2cccc(C(F)(F)F)c2)C(c2ccc(Cl)cc2)C1=O (stereo not drawn) [Compound 308, 3-(4-chlorophenyl)-1-isopropyl-4-(3-(trifluoro-methyl)benzyl)piperazine-2,5-dione] |  |
| 0.7 | O=C1CN(c2ccc(Cl)cc2F)C(=O)[C@]2(C[C@@H](O)C2)N1Cc1ccc(C(F)(F)F)cc1 (single isomer, unassigned) [Compound 483B] |  |
| 7.3 | CC(C)N1CC(=O)N(Cc2ccc(Cl)cc2)C2(CC(c3ccccc3)C2)C1=O (stereo not drawn) [Compound 318, 5-(4-chlorobenzyl)-8-isopropyl-2-phenyl-5,8-diazaspiro[3.5]nonane-6,9-dione] |  |
| 0.5 | CCC(=O)N1CC[C@]2(C1)C(=O)N(c1ccc(C#N)cc1F)CC(=O)N2Cc1ccc(Cl)cc1 [Compound 214, (S)-4-(6-(4-chlorobenzyl)-7,10-dioxo-2-propionyl-2,6,9-triazaspiro[4.5]decan-9-yl)-3-fluorobenzonitrile] |  |
| 0.4 | N#Cc1ccc(N2CC(=O)N(Cc3ccc(Cl)cc3)[C@]3(C[C@H](C(=O)N4CCC(O)CC4)C3)C2=O)c(F)c1 (single isomer, unassigned) [Compound 492B] |  |
| 20.5 | CC(C)N1CC(=O)N(Cc2ccc(Cl)cc2)C2(CCN(C(=O)NC3CC3)C2)C1=O (stereo not drawn) [Compound 122, 6-(4-chlorobenzyl)-N-cyclopropyl-9-isopropyl-7,10-dioxo-2,6,9-triazaspiro[4.5]decane-2-carboxamide] |  |
| 7.1 | Cc1ncccc1N1CC2(C1)C(=O)N(C(C)C)CC(=O)N2Cc1ccc(Cl)cc1 [Compound 13, 5-(4-chlorobenzyl)-8-isopropyl-2-(2-methyl-pyridin-3-yl)-2,5,8-triazaspiro[3.5]nonane-6,9-dione] |  |
